The source of these data is patent US11168095B2, “ASK1 inhibiting agents” (BIOGEN MA INC., priority 2017, dated 2021).

The conditions of data set [1]: 14-membered ring.
For data set [2] the following is noted: amide bond, 14-membered ring, T3P/Et3N.
Another data set addresses GST-hASK1 (Homo sapiens (Human), UniProt Q99683). As to the kind of experiment: ASK1 TR-FRET assay. It is filed as biochemical. Conditions: 5 nM GST-hASK1, 100 μM ATP, 2 μM STK Substrate 3. Here is the method: The protein kinase activity of 5 nM GST-hASK1(Life Technologies PV4011) was assayed with 100 μM ATP and 2 μM of HTRF biotinylated STK Substrate 3 (CisBio Kit 62ST3PEJ), at ambient temperature in 25 mM Hepes, pH 7.5, 50 mM NaCl, 10 mM MgCl2, 0.02% Brij-35, 1 mM DTT, and 1% DMSO.
After a 10 minute pre-incubation, ASK1 protein kinase activity was initiated by addition of 10 μL of 300 μM ATP.
(In TR-FRET formats the signal depends on donor and acceptor labels being close together.)

The target in the next data set is ASK1/MAP3K5 (Homo sapiens (Human), UniProt Q99683). As to the kind of experiment: ASK1/MAP3K5 assay by Reaction Biology Corp. Conditions: 20 μM myelin basic protein (MBP), 10 μM ATP. Format: biochemical. Here is the method:
ASK1/MAP3K5 was used as the protein kinase and 20 μM of myelin basic protein (MBP) and 10 μM ATP were used as the substrate.

The target in data set [3] is ASK1 T838 auto phosphorylation in HEK-293T cells (Homo sapiens (Human), UniProt Q99683). Kind of data set: ASK1 (AUTO PHOS T838) assay, MSD format. Format: cell-based. Conditions: HEK 293T cells transfected with ASK1-V5 full length plasmid, compounds 1 hr at 37° C.; read-out: IC50.
Chain of ASK1 T838 auto phosphorylation in HEK-293T cells (Q99683 whole entry): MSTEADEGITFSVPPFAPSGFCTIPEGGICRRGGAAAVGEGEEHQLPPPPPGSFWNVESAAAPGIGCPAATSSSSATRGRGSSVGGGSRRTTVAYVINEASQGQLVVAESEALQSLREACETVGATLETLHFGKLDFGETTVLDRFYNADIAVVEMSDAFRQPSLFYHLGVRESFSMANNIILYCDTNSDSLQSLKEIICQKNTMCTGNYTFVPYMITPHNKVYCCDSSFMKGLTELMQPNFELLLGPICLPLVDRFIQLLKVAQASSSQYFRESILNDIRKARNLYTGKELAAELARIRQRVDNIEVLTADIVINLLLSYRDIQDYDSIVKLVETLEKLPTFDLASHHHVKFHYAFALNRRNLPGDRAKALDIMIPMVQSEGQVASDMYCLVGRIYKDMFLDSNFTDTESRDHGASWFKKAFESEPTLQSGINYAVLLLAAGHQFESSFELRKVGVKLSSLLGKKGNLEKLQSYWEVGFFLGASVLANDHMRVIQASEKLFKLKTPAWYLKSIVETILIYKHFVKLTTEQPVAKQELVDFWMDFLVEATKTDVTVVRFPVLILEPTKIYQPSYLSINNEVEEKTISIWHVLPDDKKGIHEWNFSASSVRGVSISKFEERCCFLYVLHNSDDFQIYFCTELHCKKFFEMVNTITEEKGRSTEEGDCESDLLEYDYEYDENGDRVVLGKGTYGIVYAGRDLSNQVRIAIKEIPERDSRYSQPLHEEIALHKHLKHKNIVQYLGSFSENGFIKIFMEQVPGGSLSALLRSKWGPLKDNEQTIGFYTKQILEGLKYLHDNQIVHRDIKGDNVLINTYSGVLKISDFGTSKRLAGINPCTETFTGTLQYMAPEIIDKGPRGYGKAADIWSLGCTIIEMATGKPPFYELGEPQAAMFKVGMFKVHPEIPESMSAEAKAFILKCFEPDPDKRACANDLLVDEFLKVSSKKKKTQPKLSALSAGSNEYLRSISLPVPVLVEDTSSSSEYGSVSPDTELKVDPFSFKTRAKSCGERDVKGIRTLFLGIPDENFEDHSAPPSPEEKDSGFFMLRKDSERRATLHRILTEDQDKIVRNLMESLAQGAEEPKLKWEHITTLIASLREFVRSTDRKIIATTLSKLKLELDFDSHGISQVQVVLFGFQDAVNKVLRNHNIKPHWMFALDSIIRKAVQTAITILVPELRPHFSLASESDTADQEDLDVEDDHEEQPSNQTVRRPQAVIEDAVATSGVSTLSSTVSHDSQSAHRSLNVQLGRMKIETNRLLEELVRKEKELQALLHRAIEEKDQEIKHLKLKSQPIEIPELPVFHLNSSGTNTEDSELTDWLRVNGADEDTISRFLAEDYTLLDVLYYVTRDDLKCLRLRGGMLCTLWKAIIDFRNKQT

Several values for one entry are separate records, joined by “and”; a condition that tells them apart may be missing. Equal entries are not always repeated. Where two headings read alike, the source gives them in different places.

Chain of GST-hASK1 (Q99683 649-946): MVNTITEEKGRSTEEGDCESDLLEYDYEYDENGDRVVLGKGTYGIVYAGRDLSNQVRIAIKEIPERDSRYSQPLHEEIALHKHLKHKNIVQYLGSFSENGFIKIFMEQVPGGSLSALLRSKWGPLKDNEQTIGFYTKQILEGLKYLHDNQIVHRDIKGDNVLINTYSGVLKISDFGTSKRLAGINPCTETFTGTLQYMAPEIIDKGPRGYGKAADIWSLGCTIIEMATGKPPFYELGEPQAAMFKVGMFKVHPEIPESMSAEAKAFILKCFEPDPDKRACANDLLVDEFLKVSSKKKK
Chain of ASK1/MAP3K5 (Q99683 whole entry): as the sequence (Q99683 whole entry) above

Compound `CC(C)(C)OC(=O)N1C(=O)c2cc(Br)c(F)cc2OCCC=CCn2cnnc2-c2cccc1n2` had a ring closure, isolated yield (from C=CCCOc1cc(F)c(Br)cc1C(=O)N(C(=O)OC(C)(C)C)c1cccc(-c2nncn2CC=C)n1, rcm bond, 15-membered ring, Hoveyda-Grubbs I (20 mol%), toluene, 1.66 mM, 110.0 °C, 17.0 h) of 31%.

For the compound `CC(C)(C)OC(=O)N1C(=O)c2ccc(C(F)(F)F)cc2OCC=CCn2cnnc2-c2cccc1n2`, the ring closure, yield after HPLC in data set [1] (from C=CCOc1cc(C(F)(F)F)ccc1C(=O)N(C(=O)OC(C)(C)C)c1cccc(-c2nncn2CC=C)n1, rcm bond, Hoveyda-Grubbs I (20 mol%), toluene, 1.9 mM, 110.0 °C, 17.0 h) was 9% and 13%.

Compound `O=C1Nc2cccc(n2)-c2nncn2CC=CCOc2cc(C(F)(F)F)ccc21` returned a ring closure, isolated yield (from C=CCOc1cc(C(F)(F)F)ccc1C(=O)Nc1cccc(-c2nncn2CC=C)n1, rcm bond, 14-membered ring, Hoveyda-Grubbs II (10 mol%), DCE, 2.64 mM, 80.0 °C, 3.0 h) of 41%.

As to `O=C1Nc2cccc(n2)-c2nncn2CCCCOc2cc(C(F)(F)F)c(Cl)cc21`, the ring closure, yield after HPLC in data set [1] (from Nc1cccc(-c2nncn2CCCCOc2cc(C(F)(F)F)c(Br)cc2C(=O)O)n1, amide bond, T3P/Et3N, Et3N/EtOAc, 18.0 mM, 50.0 °C, 4.0 h) was 40%.

In turn, `O=C1Nc2cccc(n2)-c2nncn2CCCCOc2cc(Cl)c(F)cc21` came in with a ring closure, isolated yield (from Nc1cccc(-c2nncn2CCCCOc2cc(Br)c(F)cc2C(=O)O)n1, amide bond, 14-membered ring, T3P/Et3N, Et3N/EtOAc, 110.0 °C, 0.05 h, 2 steps) of 55%.

In turn, `O=C1Nc2cccc(n2)-c2nncn2CCCCOc2cc(Cl)ccc21` had a ring closure, isolated yield (from Nc1cccc(-c2nncn2CCCCOc2cc(Br)ccc2C(=O)O)n1, amide bond, 14-membered ring, T3P/Et3N, Et3N/EtOAc, 116.0 mM, 50.0 °C, 3.0 h) of 27%.

For `O=C1Nc2cccc(n2)-c2nncn2CCCCOc2cc(F)c(Cl)cc21`, the ring closure, isolated yield (from Nc1cccc(-c2nncn2CCCCOc2cc(F)c(Br)cc2C(=O)O)n1, amide bond, 14-membered ring, T3P/Et3N, Et3N/EtOAc, 117.0 mM, 80.0 °C, 17.0 h) amounted to 35%.

`O=C1Nc2cccc(n2)-c2nncn2CCCCOc2ccc(Cl)cc21` came in with a ring closure, isolated yield (from Nc1cccc(-c2nncn2CCCCOc2ccc(Br)cc2C(=O)O)n1, amide bond, 14-membered ring, T3P/Et3N, Et3N/EtOAc, 76.0 mM, 80.0 °C, 4.0 h) of 41%.

In data set [2] (from CC(CCCOc1cc(Br)ccc1C(=O)O)n1cnnc1-c1cccc(N)n1, EtOAc/Et3N, 50.0 °C, 12.0 h), `CC1CCCOc2cc(Cl)ccc2C(=O)Nc2cccc(n2)-c2nncn21` (racemic) showed a ring closure, crude yield of 37%.

`CC1CCCn2cnnc2-c2cccc(n2)NC(=O)c2cc(Cl)ccc2O1` (racemic) registered a ring closure, crude yield in data set [2] (from CC(CCCn1cnnc1-c1cccc(N)n1)Oc1ccc(Br)cc1C(=O)O, Et3N/EtOAc, 137.0 mM, 70.0 °C, 3.0 h) of 57%.

For the setting “from CC(CCOc1cc(F)c(Br)cc1C(=O)O)Cn1cnnc1-c1cccc(N)n1, amide bond, 14-membered ring, T3P/Et3N, Et3N/EtOAc, 43.0 mM, 70.0 °C, 2.0 h”, `CC1CCOc2cc(F)c(Cl)cc2C(=O)Nc2cccc(n2)-c2nncn2C1` (racemic) came in with a ring closure, isolated yield of 23%.

On to `Cc1nn(C)cc1-c1ccc2c(c1)C(=O)Nc1cccc(n1)-c1nncn1CCCCO2` [Example 32, 5^5-(1,3-Dimethyl-1H-pyrazol-4-yl)-1^4H-6-oxa-3-aza-2(2,6)-pyridina-1(3,4)-triazola-5(1,2)-benzenacyclodecaphan-4-one], for which the IC50 is less than 100 nM at GST-hASK1, less than 100 nM at ASK1/MAP3K5 and less than 1000 nM in data set [3].

As for `Cc1nn(C)c(C)c1-c1ccc2c(c1)C(=O)Nc1cccc(n1)-c1nncn1CCCCO2` [Example 33, 5^5-(1,3,5-Trimethyl-1H-pyrazol-4-yl)-1^4H-6-oxa-3-aza-2(2,6)-pyridina-1(3,4)-triazola-5(1,2)-benzenacyclodecaphan-4-one], the IC50 is less than 100 nM against GST-hASK1, less than 100 nM against ASK1/MAP3K5 and less than 1000 nM in data set [3].

Turning to `Cc1cc(-c2ccc3c(c2)C(=O)Nc2cccc(n2)-c2nncn2CCCCO3)n(C)n1` [Example 34, 5^5-(1,3-Dimethyl-1H-pyrazol-5-yl)-1^4H-6-oxa-3-aza-2(2,6)-pyridina-1(3,4)-triazola-5(1,2)-benzenacyclodecaphan-4-one], the values for the IC50 (against GST-hASK1; on ASK1/MAP3K5; in data set [3]) were less than 100 nM, less than 100 nM and less than 1000 nM, respectively.

Regarding `Cc1ncn(-c2ccc3c(c2)C(=O)Nc2cccc(n2)-c2nncn2CCCCO3)c1C` [Example 42, 5^5-(4,5-Dimethyl-1H-imidazol-1-yl)-1^4H-6-oxa-3-aza-2(2,6)-pyridina-1(3,4)-triazola-5(1,2)-benzenacyclodecaphan-4-one], the results for the concentration for half-maximal inhibition (IC50) (against GST-hASK1; against ASK1/MAP3K5; in data set [3]) were less than 100 nM, less than 100 nM and less than 1000 nM, respectively.

With `O=C1Nc2cccc(n2)-c2nncn2CCCCOc2ccc(-n3cccn3)cc21` [Example 44, 5^5-(1H-Pyrazol-1-yl)-1^4H-6-oxa-3-aza-2(2,6)-pyridina-1(3,4)-triazola-5(1,2)-benzenacyclodecaphan-4-one], the IC50 is less than 100 nM against GST-hASK1, less than 100 nM at ASK1/MAP3K5 and less than 1000 nM in data set [3].

For `Cc1cn(-c2ccc3c(c2)C(=O)Nc2cccc(n2)-c2nncn2[C@H](C)CCCO3)cn1` [Example 93, (R)-10-Methyl-5^5-(4-methyl-1H-imidazol-1-yl)-1^4H-6-oxa-3-aza-2(2,6)-pyridina-1(3,4)-triazola-5(1,2)-benzenacyclodecaphan-4-one], the half-maximal inhibitory concentration (IC50) against GST-hASK1 is less than 100 nM; against ASK1/MAP3K5, less than 100 nM; in data set [3], less than 1000 nM.

`Cc1cn(-c2ccc3c(c2)C(=O)Nc2cccc(n2)-c2nncn2[C@@H](C)CCCO3)cn1` [Example 94, (S)-10-Methyl-5^5-(4-methyl-1H-imidazol-1-yl)-1^4H-6-oxa-3-aza-2(2,6)-pyridina-1(3,4)-triazola-5(1,2)-benzenacyclodecaphan-4-one]: the figures for the 50% inhibitory concentration (IC50) (on GST-hASK1; on ASK1/MAP3K5; in data set [3]) were less than 100 nM, less than 100 nM and less than 1000 nM, respectively.

Turning to `C[C@H]1CCCOc2ccc(-c3cnn(C)c3)cc2C(=O)Nc2cccc(n2)-c2nncn21` [Example 96, (S)-10-Methyl-5^5-(1-methyl-1H-pyrazol-4-yl)-1^4H-6-oxa-3-aza-2(2,6)-pyridina-1(3,4)-triazola-5(1,2)-benzenacyclodecaphan-4-one], the IC50 is less than 100 nM against GST-hASK1, less than 100 nM against ASK1/MAP3K5 and less than 1000 nM in data set [3].

Turning to `O=C1Nc2cccc(n2)-c2nncn2CCCCCOc2ccc(N3CCOCC3)cc21` [Example 172, 5^5-Morpholino-1^4H-6-oxa-3-aza-2(2,6)-pyridina-1(3,4)-triazola-5(1,2)-benzenacycloundecaphan-4-one], the half-maximal inhibitory concentration (IC50) is less than 100 nM against GST-hASK1, less than 100 nM against ASK1/MAP3K5 and less than 1000 nM in data set [3].

As for `O=C1Nc2cccc(n2)-c2nncn2CCCCCOc2ccc(N3CC4(COC4)C3)cc21` [Example 173, 5^5-(2-Oxa-6-azaspiro[3.3]heptan-6-yl)-1^4H-6-oxa-3-aza-2(2,6)-pyridina-1(3,4)-triazola-5(1,2)-benzenacycloundecaphan-4-one], the concentration for half-maximal inhibition (IC50) against GST-hASK1 was less than 100 nM; on ASK1/MAP3K5, less than 100 nM; in data set [3] it was less than 1000 nM.

By IC50 is commonly meant the point on the concentration scale where inhibition reaches its midpoint.
